The results in this text go back to patent US20250025440A1, “COMPOSITIONS AND METHODS FOR MANAGEMENT OF HUMAN PAPILLOMA VIRUS-ASSOCIATED CANCERS” (LOMA LINDA UNIVERSITY, priority 2021, published 2025).

Experiment [1] addresses T1, full-length HPV E6 binding to human Caspase 8 (Human papillomavirus type 16, UniProt P03126).
T1 construct: made in house; host or cells: E. coli
The note with it: SAR analogs. On the procedure: Three structurally diverse libraries (Prestwick library, Microsource Spectrum library and an in-house collection at Kansas University; see Table 1) were screened for the ability of compounds to inhibit the binding of full-length HPV E6 to human Caspase 8 using a previously optimized AlphaScreen™ protocol.
The compounds were diluted to a working concentration in DMSO and screened at a single-point final concentration of 10 μM with no replicates. Briefly, 75 nL of each compound was transferred and added to wells of the destination 384-well plate using the Echo dispenser to 4 μL of blocking solution. 4 μL of 800 nM GST-E6 and 4 μL of His6-Caspase 8 were added and pre-incubated at room temperature for 60 minutes. 8 μL of the donor and acceptor bead mixture (final concentration of 20 μg/ml) was then added. The plates were sealed and incubated for 4 hours at room temperature before the plates were read using the Envision™ Multi-Label plate reader (Perkin Elmer Inc.). […] A 10-point serial dilution of these compounds was done for dose-dependency reconfirmation. Dose response inhibition curves were constructed and IC50 calculated using GraphPad Prism using four parameter non-linear regression analysis.
The first counter-screen assay was based using the GST-His6 fusion peptide as the E6-binding partner instead of GST-E6-His6-Caspase 8. Hit candidate compounds from the primary screen were prepared using a 6-point serial dilution. Using an Echo dispenser, compounds were transferred to plates containing 4 μL of blocking buffer. 8 μL of 5 nM GST-His6 peptide substrate was then added. The mixture was pre-incubated at room temperature for 60 minutes. Glutathione donor and nickel chelate acceptor beads (final concentration 20 μg/mL) were added and incubated for another 60 minutes at room temperature. Dose-dependency of the compounds using GST-E6-His6-Caspase 8 was performed in parallel using the same protocol as in the primary screen. The signals were then read using the Envision™ plate reader.
(§1) Using the SciFinder and Zinc15 databases, several gambogic acid structural analogs were identified and selected. The 8 analogs were obtained as follow: gambogenic amide (Enzo Life Sciences), gambogenic acid (Selleckchem), morellic acid (Aobious), 30-hydroxy gambogic acid (Quality Phytochemicals, LLC), acetyl gambogic acid (Microsource), and gambogin, neogambogic acid and isomorellinol (MolPort Natural Products). Additional gambogic acid was purchased from Tocris. The interactions of the analogues with E6-caspase 8 was tested using AlphaScreen™ technology using the same protocol as with the primary screen, and were compared to the parent compound. The effect on cell viability was also similarly done in HPV^+ and HPV^− cell lines via the MTT assay (see below) and potency was determined using GraphPad IC50 curve fitting.

The test system of experiment [2] is SCC104 (HPV+ HNSCC cell line). Put plainly: MTT cell viability of gambogic acid analogs. Type of experiment: cell-based. To be noted: SCC104, 24 hr. The procedure:
Next, the analogs were evaluated for functional activity using the HPV^+ HNSCC cell line, SCC104, in the MTT assay as described previously to determine whether similar findings would be observed as in the in vitro AlphaScreen™ analysis. With one exception, the patterns were similar to the AlphaScreen™ data, but the differences were relatively more pronounced in the cell-based screen (FIG. 6B). […] Based on these findings, 30-hydroxygambogic acid (GA-OH) was selected as a candidate for more extensive functional studies.
as §1
All working concentrations were diluted in PBS to the desired concentration before use. To test the effect of gambogic acid and/or its derivatives on cell viability, all cell lines were seeded at 2×10^4 per well in 96-well plates and allowed to adhere overnight. Various concentrations of the analogues were added and the cells incubated at 37° C. for 24 hr. Viability was then measured using the MTT assay, performed as described previously. All experiments were repeated at least three times (three biological replicates, carried out on different days). Data presented are from a representative experiment. Cell viability and potency were assessed from % inhibition relative to the vehicle control, and IC50 dose curves were generated using GraphPad Prism.

The test system of experiment [3] is SCC104 (HPV+). As to the kind of experiment: Colony formation assay. It counts as cell-based. To be noted: SCC104, treated 24 hours. The procedure: (§2) For assessing the long-term effects on the survival of cells following GA-OH treatment, the colony formation assay (CFA) was performed. Two cell lines, SCC19 (HPV^−) and SCC104 (HPV^+) were used for this study. The cells were treated for 24 hours with GA-OH, and then seeded for assessment of colony formation. Cell survival data from this study mirrored the impact of GA-OH on cell viability of HPV^+ and HPV^− cell lines. […] FIG. 7C is a graphical representation of the effects of GA-OH on the clonogenicity of the surviving fractions of HPV^+ versus HPV^− cell lines.
(§3) Sub-confluent monolayer cells were treated with different doses of GA-OH for 24 hours. Cells were trypsinized and re-suspended before re-plating into 6 well plates in DMEM or MEM at 500-1000 cell densities, depending on the cell line. Cells were then allowed to grow for 10-20 days, depending on the cell line, before fixing and staining. A mixture of methanol/acetic acid was used for fixing, followed by 0.5% crystal violet staining. Plates were imaged using UV imager, and colonies with more than […] counted using image J. Surviving fractions were determined by dividing the number of colonies by the number of cells seeded as a product of the corresponding plating efficiency. Survival fractions curves were plotted using GraphPad Prism.

For experiment [4], the system named is SCC19 (HPV-). Put plainly: Colony formation assay. It counts as cell-based. To be noted: SCC19, treated 24 hours. On the procedure: as §2, §3
The subject of experiment [5] is HPV- (SCC19, SCC29) and HPV+ (SCC47, SCC104, SCC152) HNSCC cell lines. Put plainly: Sensitization of HNSCC cell lines to photon radiation. To be noted: radiation 0-4Gy followed by inhibitor; DER10. Type of experiment: cell-based.
Description: The dose enhancement ratio for 10% survival (DER10) was calculated as follows: DER10=(Dose correlated with 10% survival fraction in radiation-treated cells)/(Dose correlated with 10% survival fraction in radiation and inhibitor treated cells).
CCDP, Cetuximab, and GA-OH were evaluated for their ability to sensitize HNSCC cell lines to photon radiation.
Colonies were counted after 14-21 days and normalized to vehicle control and survival analysis was performed.
Sensitization of an additional HPV^+ cell line to radiation by CDDP, Cetuximab and GA-OH was evaluated.

Entries after “also recorded” stand apart in the source; their conditions may differ.

T1 sequence (P03126 whole entry): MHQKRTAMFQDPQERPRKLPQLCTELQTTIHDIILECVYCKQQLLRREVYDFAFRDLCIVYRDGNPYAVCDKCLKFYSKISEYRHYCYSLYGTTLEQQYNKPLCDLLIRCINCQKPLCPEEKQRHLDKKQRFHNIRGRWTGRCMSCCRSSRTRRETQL

Take 30-hydroxygambogic acid [GA-OH]: the “inhibition of E6-caspase 8 binding relative to GA” value in experiment [1] is recorded as “more effectively inhibited E6 binding to caspase 8 than any of the other analogs or the parent compound”. Also, the “potency in MTT assay” value in experiment [2] is “highest potency of all analogs”. Moreover, the number of colonies entry in experiment [3] was “significantly and dose-dependently reduced”; in experiment [4], “did not exhibit significant reduction relative to their control except at high concentrations”. The “sensitization to photon radiation” value in experiment [5] is “most sensitization in HPV+ cell lines; also recorded: less than that of CDDP but greater than cetuximab”.
